Data from patent US20080312085A1, “Pesticidal Compositions” (priority 2005, published 2008).

Assays:
[1] = tested on: Cotton Aphid (Aphis gossypii); test: Cotton aphid test, cotyledons of infested cotton plants dipped; type: in vivo; conditions: 120 h, aphid mortality determined after 5 days, read-out: mortality in comparison with untreated controls
Source text: B.1 Cotton Aphid (Aphis gossypii)
(§1) The active compounds were formulated in 50:50 acetone:water and 100 ppm Kinetica™ surfactant.
(§2) Cotton plants in the cotyledon stage (variety ‘Delta Pine’) are infested with approximately 100 laboratory-reared aphids by placing infested leaf sections on top of the test plants. The leaf sections are removed after 24 hr. The cotyledons of the intact plants are dipped into gradient solutions of the test compound. Aphid mortality on the treated plants, relative to mortality on check plants, is determined after 5 days.

[2] = tested on: Green Peach Aphid (Myzus persicae); test: Green peach aphid test, leaves of infested pepper plants dipped; type: in vivo; conditions: 120 h, aphid mortality determined after 5 days, read-out: mortality in comparison with untreated controls
Source text: B.2 Green Peach Aphid (Myzus persicae)
as §1
as §2, with “Pepper” for “Cotton”, “2nd leaf-pair” for “cotyledon”, “‘California Wonder’)” for “‘Delta Pine’)”, “40” for “100”, “leaves” for “cotyledons”

[3] = tested on: Cowpea Aphid (aphis craccivora); test: Cowpea aphid test, colonized potted cowpea plants sprayed; type: in vivo; conditions: population reduction recorded after 24, 72 and 120 hours, read-out: mortality in comparison with untreated controls
Protocol: B.3 Cowpea Aphid (aphis craccivora)
The active compounds were formulated in 50:50 acetone:water. Potted cowpea plants colonized with 100-150 aphids of various stages were sprayed after the pest population has been recorded. Population reduction was recorded after 24, 72, and 120 hours.

[4] = tested on: Vetch Aphid (Megoura viciae); test: Vetch aphid test, sprayed bean leaf disks in microtiterplates; type: in vivo; conditions: foliar, 144 h, bean leaf disks sprayed with 2.5 μl, 6 days, read-out: mortality in comparison with untreated controls
Protocol: B.4 Vetch Aphid (Megoura viciae)
The active compounds were formulated in 1:3 DMSO:water. Bean leaf disks were placed into microtiterplates filled with 0.8% agar-agar and 2.5 ppm OPUS™. The leaf disks were sprayed with 2.5 μl of the test solution and 5 to 8 adult aphids were placed into the microtiterplates which were then closed and kept at 22-24° C. and 35-45% under fluorescent light for 6 days. Mortality was assessed on the basis of vital, reproduced aphids. Tests were replicated twice.

Row | Structure (SMILES) | melting point [°C] | mortality at 300 ppm [1] [%] | mortality at 300 ppm [2] [%] | mortality at 300 ppm [3] [%] | mortality at 2500 ppm [4] [%]
1 | Clc1cccc(C(Cc2cc(Cl)c3ccccc3n2)NC2=NCCS2)c1Cl (centres unmarked) [Compound Example 12] | 71 to 73 | – | – | – | –
2 | Clc1cccc(C(Cc2cn(Cc3ccccc3)nn2)NC2=NCCS2)c1Cl (centres unmarked) [Compound Example 35] | 74 to 89 | – | – | – | –
3 | Clc1cccc(C(Cc2ccccn2)NC2=NCCS2)c1Cl (centres unmarked) [compound 1] | – | > 80 | > 80 | > 80 | –
4 | Cc1ccc(CC(NC2=NCCS2)c2cccc(Cl)c2Cl)nc1 (centres unmarked) [compound 3] | – | > 80 | > 80 | > 80 | –
5 | Cc1cccc(CC(NC2=NCCS2)c2cccc(Cl)c2Cl)n1 (centres unmarked) [compound 4] | – | > 80 | > 80 | > 80 | –
6 | Cc1cc(C)nc(CC(NC2=NCCS2)c2cccc(Cl)c2Cl)c1 (centres unmarked) [compound 6] | – | > 80 | > 80 | > 80 | > 80
7 | Clc1cccc(C(Cc2nccc3ccccc23)NC2=NCCS2)c1Cl (centres unmarked) [compound 8] | – | > 80 | > 80 | > 80 | > 80
8 | Clc1cccc(C(Cc2ccc3ccccc3n2)NC2=NCCS2)c1Cl (centres unmarked) [compound 9] | – | > 80 | > 80 | > 80 | > 80
9 | Clc1cccc(C(Cc2cccnc2)NC2=NCCS2)c1Cl (centres unmarked) [compound 13] | – | – | > 80 | – | –
10 | Cc1cc(CC(NC2=NCCS2)c2cccc(Cl)c2Cl)on1 (centres unmarked) [compound 23] | – | – | – | > 80 | –
11 | CCc1cc(CC(NC2=NCCS2)c2cccc(Cl)c2Cl)on1 (centres unmarked) [compound 24] | – | > 80 | > 80 | – | –
12 | Cc1nc(CC(NC2=NCCS2)c2cccc(Cl)c2Cl)oc1C (centres unmarked) [compound 31] | – | – | – | > 80 | –
13 | c1ccc(C(Cc2ccco2)NC2=NCCS2)cc1 (centres unmarked) [compound 38] | – | > 80 | > 80 | – | –
14 | c1ccc(C(Cc2cccs2)NC2=NCCS2)cc1 (centres unmarked) [compound 39] | – | > 80 | > 80 | – | –
